Reference: US10233157B2, “SIK inhibitor for use in a method of treating an inflammatory and/or immune disorder” (Dana-Farber Cancer Institute, Inc., priority 2012, dated 2019)
“Also recorded” adds a separate entry of the source.

Key:
[1] = test system: LPS-stimulated macrophages; assay: Cytokine secretion in TLR-stimulated bone-marrow derived macrophages; format: cell-based, mouse
Method: Bone-marrow derived macrophages were differentiated for 7 days in DMEM supplemented with 5 ng/ml recombinant M-CSF (R&D systems), 2 mM glutamine, 10% foetal calf serum, penicillin and streptomycin.
Following stimulation with ligands, the cell culture medium was removed, clarified by centrifugation for 10 min at 14000×g and the concentration of TNFα, IL-6, IL-10, IL-12p40, and RANTES were measured using the Bio-Plex Pro Assay system from Bio-Rad. IFNβ was measured using an ELISA kit from R&D Systems according to the manufacturers' instructions.
RNA was extracted using the RNeasy Micro Kit (Qiagen). cDNA was generated using the iScript cDNA synthesis kit and quantified by qPCR using the SsoFast EvaGreen Supermix (Bio-Rad Laboratories). […] Fold-induction for each gene was reported relative to untreated control cells, which was set to 1. The concentrations of TNFα, IL-6, IL-10, IL-12p40, and RANTES in culture supernatants were measured using the Bio-Plex Pro Assay system from Bio-Rad. Further details in supplementary information.
Following stimulation with ligands, the cell culture medium was removed, clarified by centrifugation for 10 min at 14000×g and the concentration of TNFα, IL-6, IL-10, IL-12p40 and RANTES were measured using the Bio-Plex Pro Assay system from Bio-Rad. IL-1ra and IFNβ were measured using ELISA kits from R&D Systems.

LPS-stimulated BMDMs = assay: Expression of macrophage markers in LPS-stimulated BMDMs (qPCR); format: cell-based, mouse; settings: for LPS-stimulated expression of SPHK1, LIGHT and Arginase 1: 500 nM
Method: FIGS. 10A to 10E. Inhibition of the LKB1-SIK-CRTC3-IL10 signaling axis drives the expression of markers of regulatory macrophages. (FIG. 10A) Effect of SIK inhibitors on the LPS-stimulated expression of LIGHT, SPHK1, Arg1 and IL-1ra (n=4, mean±SD). […] (FIG. 10C) Elevated expression of markers of regulatory macrophage in LKB1−/− macrophages. BMDMs were generated from LysM-Cre/LKB1+/+ and LysM-Cre/LKB1flox/flox mice and stimulated with 100 ng/ml LPS (mean±SD, n=3). (FIG. 10D) CRTC3 is required for the induction of markers of regulatory macrophages. […] LIGHT and SPHK1 mRNA was measured at 2 h and Arg1 at 8 h post-LPS stimulation (mean±SD, n=4). […] The experiment was carried out as in (FIG. 10D) except that BMDMs were generated from IL-10+/+ and IL-10−/− mice (mean±SD, n=4).
mRNA was extracted from cells using the RNeasy Micro Kit following the manufacturers' instructions (Qiagen). cDNA was generated from 1 μg of total RNA using the iScript cDNA synthesis kit and quantified by qPCR using the SsoFast EvaGreen Supermix on a CFX96 real time system (Bio-Rad Laboratories). The relative expression of each gene was calculated from Ct values using the Pfaffl method (5) and was normalized against the mRNA levels of 18S RNA or GAPDH. Results are reported relative to untreated control cells, which was set to 1. The following primers were used: […]

LKB1−/− cells = assay: CREB-dependent gene transcription in IL-1 stimulated LKB1+/+ and LKB1−/− MEFs; format: cell-based, mouse
AMPK-related kinases = format: biochemical; settings: members of the AMPK subfamily other than SIKs
Method: Recombinant SIK1, SIK2, SIK3 were expressed as GST-fusion proteins in HEK293 cells and purified on a glutathione-Sepharose column. […] FLAG-CRTC3 was immunoprecipitated using anti-FLAG M2 agarose, washed in kinase buffer (50 mM Tris/HCl pH 7.4, 10 mM Mg acetate, 0.1 mM EGTA, 2 mM DTT) and reactions initiated by adding 4 U/ml recombinant kinase with 0.1 mM ATP (specific activity 3000 cpm/pmol). Phosphorylation of CRTC3 was monitored by autoradiography as well as immunoblotting using phosphospecific antibodies raised against Ser162, Ser329 and Ser370. […] Kinase profiling was performed as previously described (7) and performed by the International Centre for Kinase Profiling (www.kinase-screen.mrc.ac.uk).

CRTC3 = assay: IL-10 production in macrophages after siRNA knockdown of CRTC3; format: cell-based, mouse; settings: TLR/LPS-stimulated macrophages
Source text: BMDMs were transfected with siRNA oligonucleotides against CRTC1, CRTC2, CRTC3 or non-targetting oligonucleotides as a negative control. […] Gene expression was quantified by qPCR and reported relative to mRNA levels measured in untreated cells (1.0). Knockdown efficiency was monitored by qPCR (mean±SD, n=4).
RNAi in Macrophages RAW264.7 cells or BMDMs were transfected with 100 pmol of SMARTpool siRNA oligos against CREB, CRTC1, CRTC2, CRTC3 or a non-targetting control (Dharmacon) using AMAXA nucleofection. Cells were cultured for 24 h prior to incubation with inhibitors for 1 h followed by stimulation for 1 h with 100 ng/ml LPS. Gene expression was measured by real-time quantitative PCR. For shRNA knockdown of SIKs, lentivirus was generated according to the manufacturer's instructions (Sigma) and RAW264.7 cells were infected using virus harvested 48 and 72 h post-transfection. Infected cells were selected using 3 μg/ml puromycin. QPCR

| Compound | IFNβ secretion ([1]; LPS) | IL-10 secretion ([1]; LPS-stimulated macrophages) | pro-inflammatory cytokine secretion ([1]; LPS-stimulated macrophages) | IL-10 secretion ([1]; in response to TLR ligands) | IL-12p40 secretion ([1]; in response to TLR ligands) | IL-1ra mRNA (LPS-stimulated BMDMs; LPS-stimulated macrophages) | mRNAs of regulatory macrophage markers (arginase-1, SPHK1, LIGHT) (LPS-stimulated BMDMs; TLR/LPS-stimulated macrophages) | switch of macrophage programme from classically activated towards regulatory phenotype (LPS-stimulated BMDMs; quiescent macrophages) | CREB-dependent gene transcription (LKB1−/− cells; LKB1+/+ cells) | transcription of Nurr1 and Nurr77 (LKB1−/− cells; LKB1−/− cells) | inhibition of AMPK-related kinases (AMPK-related kinases) | effect of compound on IL-10 production after siRNA knockdown of CRTC3 (CRTC3) | LPS-stimulated expression of SPHK1, LIGHT and Arginase 1 (LPS-stimulated BMDMs; IL-10−/− macrophages) | LPS-stimulated expression of SPHK1, LIGHT and Arginase 1 (LPS-stimulated BMDMs; cells treated with CRTC3 siRNA) |
| --- | --- | --- | --- | --- | --- | --- | --- | --- | --- | --- | --- | --- | --- | --- |
| O=C(NCCCNc1nc(Nc2cccc(CN3CCOCC3)c2)ncc1C1CC1)C1CCC1 [MRT67307] | potently inhibited | stimulate IL-10 secretion in a dose dependent manner; also recorded: far higher levels of IL-10 | much lower levels of pro-inflammatory cytokines | high levels of IL-10 | low levels of IL-12p40 | greatly increased | stimulating the production | switched their maturation programme from the classically activated route towards the regulatory phenotype | enhanced | only be increased to a small extent | potently inhibits | completely suppressed the effects |  |  |
| COc1ccc(N(C(=O)Nc2c(C)cccc2C)c2cc(Nc3ccc(N4CCN(C)CC4)cc3)ncn2)c(OC)c1 [HG-9-91-01, 1-(2,4-dimethoxyphenyl)-3-(2,6-dimethylphenyl)-1-(6-((4-(4-methylpiperazin-1-yl)phenyl)amino)pyrimidin-4-yl)urea] |  | stimulate IL-10 secretion in a dose dependent manner; also recorded: increased | greatly suppressed |  |  |  |  |  |  |  | did not inhibit any other member | abolishes the effects; also recorded: CRTC3 was required | greatly reduced | did not occur |
